pKd: −log10 of the molar value.
Tests used:
AmelF3 in film = assay: Binding of dicyanocobyrinic acid heptamethyl ester to AmelF3 film (UV/Vis); parameters: species or system Apis mellifera; settings: peak shift from 370 to 360
Method: (§1) Films generated from recombinant honeybee silk protein AmelF3 containing dicyanocobyrinic acid heptamethyl ester were prepared as described in example 3. UV/Vis spectrum were recorded for a film generated from recombinant AmelF3 containing dicyanocobyrinic acid heptamethyl ester and a solution of dicyanocobyrinic acid heptamethyl ester without AmelF3 (FIG. 8).

[1] = biological target: T1, recombinant honeybee (Apis mellifera) silk protein AmelF3, unmodified, SEQ ID NO: 39 (Apis mellifera, UniProt A0ACM8QI31); assay: Binding of macrocycles/chelates to AmelF3 sponges or films (colour retained after washing, UV/Vis); settings: qualitative; for binding to silk protein (in words): sponge or film; for Binding properties: sponge, macrocycle in excess, retention of colour after washing
T1 construct: sponges and films
Method: Full length, recombinant honeybee silk proteins (AmelF3) without affinity purification tags, were produced by fermentation in Escherichia coli as described in Weisman et al. (2010). Full length, recombinant Weaver Ant/Green Ant (Oecophylla smaragdina) silk proteins (GA1, GA2, GA3, GA4) without affinity purification tags, were produced by fermentation in Escherichia coli following the same procedures as outlined in Weisman et al. (2010).
(§2) AmelF3 sponges were prepared as described in example 1. […] The colour change observed with honeybee silk indicates a change in the coordination of the iron metal centre within the haem group, producing a material with a similar coordination to red haemoglobin. The colour was not removed by extensive washing with 70% methanol, 0.1M HCl or 0.1M NaCl.
An embodiment of the composition of the present invention was formed by co-drying a solution of AmelF3 and haem b. Briefly, 2 mg haem b and 20 mg AmelF3 silk sponge was dissolved in 1 mL of HFIP overnight at room temperature. The solution was aliquoted into either a cuvette or 24-well plate and dried at room temperature. The dried film was soaked overnight in 70% methanol to make the film insoluble in water.
Alternatively, haem b was ‘leached’ into a pre-formed film. The AmelF3 material was formed as described in example 1. The silk material was soaked in a solution of haem b (0.5 mg/mL; haem b in excess) in 70% methanol solution for between 1 and 48 hours followed by washing with 70% methanol to remove any unbound haem b and dried at room temperature.
AmelF3 films with different ratios of haem b to AmelF3 were prepared by co-drying haem and AmelF3 HFIP solutions. At low haem loadings (haem:protein molar ratios of 1:1 and 1:2), a sharp Soret peak at 404 nm was observed, indicative of all the haem being coordinated (FIG. 3). As the concentration of haem b relative to the protein was increased, the Soret peak broadened and shifted to lower wavelengths indicating an increase in the amount of uncoordinated haem (FIG. 3).
(§3) The ability of sponges generated from recombinant AmelF3 to bind a range of macrocyles was tested by adding a solution of the macrocmacrocycle containing an excess of the macrocycle to be tested to the AmelF3 sponge and observing the colour of the sponge and whether the sponge retained colour after washing. The strength of macrocycle binding was assessed qualitatively by assessing the intensity of the colour retained by the sponge after washing. Strong binding to the sponge refers to the finding that the macrocycle cannot be washed out with aqueous methanol, organic solvents, 0.1 M HCl or 0.1 M NaOH.
as §1

[2] = biological target: T2, recombinant honeybee (Apis mellifera) silk protein AmelF3, SEQ ID NO: 39, containing bound haem b (film) (Apis mellifera, UniProt A0ACM8QI31); assay: NO binding to reduced AmelF3-haem b film (UV/Vis); settings: NO added as diethylamine NONOate to dithionite-reduced film, 50 mM phosphate pH 7; decrease in absorbance at 420 nm, sigmoidal fit modified from Hill equation; read-out: dissociation constant
T2 sequence (A0ACM8QI31 20-335): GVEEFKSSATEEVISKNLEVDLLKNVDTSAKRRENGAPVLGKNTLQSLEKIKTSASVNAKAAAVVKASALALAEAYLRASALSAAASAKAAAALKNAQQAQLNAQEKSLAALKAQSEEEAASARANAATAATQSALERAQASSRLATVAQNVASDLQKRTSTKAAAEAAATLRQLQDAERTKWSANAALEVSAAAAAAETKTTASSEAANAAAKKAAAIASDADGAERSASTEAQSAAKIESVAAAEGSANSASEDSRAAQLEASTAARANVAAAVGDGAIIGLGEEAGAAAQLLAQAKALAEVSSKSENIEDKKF
Excerpt: A. UV/Vis spectra obtained when silk protein films generated from recombinant honeybee silk protein AmelF3 were bound to increasing NO concentrations. B. Ratio change of absorbance change at 420 nm as NO concentrations are increased. Either the decrease in absorbance at 420 nm or increase in absorbance at 390 nm can be used. The decrease in absorbance at 420 nm can be converted into the fraction of nitric oxide binding site occupied by NO and plotted against NO concentration, and fitted to a sigmoidal curve modified from the Hill equation with a dissociation constant of 6.7 μM and a limit of detection of ˜1 μM.
AmelF3-haem b film was used as the porphyrin-silk film. Freshly prepared sodium dithionite (100 mM) in 50 mM phosphate buffer (pH 7) were used as the reducing agent. 10-100 μL was added to a 50 mM phosphate buffer (pH 7) covering the porphyrin-silk film. Sodium persulfate was used at the oxidising agent a similar manner to sodium dithionite. […] Changes in the UV/Vis spectrum were monitored to determine redox states and measure NO binding (FIGS. 10A and 10B). […]
Exposure to increasing NO concentration caused the Soret peak to shift from 421 nm to 395 nm. From 0-7 μM, there was a linear relationship between the decrease in absorbance at 421 nm and the concentration of NO, with a limit of detection for NO of 1 μM.

[3] = test system: materials generated from recombinant honeybee silk proteins (AmelF3 sponge); assay: Binding of macrocycles to recombinant AmelF3 honeybee silk sponges, judged by colour retained after washing; parameters: species or system Apis mellifera; settings: excess macrocycle in solution, intensity of colour retained after washing
Method: as §2, §3

[4] = biological target: T3, Apis mellifera AmelF3 (SEQ ID NO: 39) variant Tyr76Ala (Apis mellifera, UniProt A0ACM8QI31, Y95A); assay: Binding of chelates to AmelF3 Tyr76Ala sponges or films; settings: sponge washed with aqueous methanol, qualitative
T3 construct: sponge or film
Method: Site directed mutagenesis of honeybee silk proteins was carried using methods known to the person skilled in the art. For example, to generate AmelF3 Tyr76Ala, the forward primer 5′-[…]-3′ (SEQ ID NO: 80) with the corresponding reverse primer was employed and site directed mutagenesis was carried out using Pfx 50 DNA polymerase from Invitrogen following the Pfx50 manufactures instructions. All AmelF3 mutants were expressed and purified using a similar procedure as the unmodified AmelF3 silk protein. To generate AmelF3 Tyr76His, the forward primer 5′-[…]-3′ (SEQ ID NO: 81) with the corresponding reverse primer was employed. To generate AmelF3 Ala97His, the forward primer 5′-[…]-3′ (SEQ ID NO: 82) was used.
To test whether Tyr76 was indeed the coordinating ligand, the present inventors replaced Tyr76 with an alanine using site directed mutagenesis of the AmelF3 silk gene.

T3 sequence (A0ACM8QI31 entry or part of it Y95A): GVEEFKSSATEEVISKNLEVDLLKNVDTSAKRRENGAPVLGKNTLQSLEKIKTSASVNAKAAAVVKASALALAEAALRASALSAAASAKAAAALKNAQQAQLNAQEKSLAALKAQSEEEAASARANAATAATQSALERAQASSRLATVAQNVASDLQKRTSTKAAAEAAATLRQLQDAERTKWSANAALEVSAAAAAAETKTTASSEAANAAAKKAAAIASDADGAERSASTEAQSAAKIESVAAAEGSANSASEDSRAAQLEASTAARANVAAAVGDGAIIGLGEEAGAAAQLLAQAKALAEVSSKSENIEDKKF

Compound	binding to silk protein (in words) [1]	Binding properties [1]	other results
COC(=O)CC[C@@H]1C2=NC(=C\C3=NC(=C(/C)C4=N[C@@](C)([C@@H]5[N-]/C(=C\2C)[C@](C)(CCC(=O)OC)[C@H]5CC(=O)OC)[C@@](C)(CC(=O)OC)[C@@H]4CCC(=O)OC)/[C@@](C)(CC(=O)OC)[C@@H]3CCC(=O)OC)/C1(C)C.[C-]#N.[C-]#N.[Co+3] [Dicyanocobyrinic acid heptamethyl ester]	–	–	binding to AmelF3 in film (AmelF3 in film): strongly blind
C1=CC2C3=NC(=N\C4N/C(=N\C5=NC(=N\C6N/C(=N\3)c3ccccc36)/C3C=CC=CC53)c3ccccc34)/C2C=C1 (stereo not drawn) [drawing 5, Phthalocyanine]	no binding is obtained	–	–
C=Cc1c(C)c2cc3[nH]c(cc4nc(cc5nc(cc1[nH]2)C(C)=C5CCC(=O)OC)C(CCC(=O)OC)=C4C)c(C)c3C=C	–	Does not bind	–
[N]=O [NO, nitric oxide]	–	–	pKd [2]: 5.17
CCC1=C(C)c2cc3[nH]c(cc4[nH]c(cc5nc(cc1n2)C(C)=C5CC)c(C)c4CC)c(C)c3CC [etioporphryin I]	no binding is obtained	–	–
C=CC1=C(C)c2cc3[nH]c(cc4nc(cc5[nH]c(cc1n2)c(C)c5CCC(=O)O)C(CCC(=O)O)=C4C)c(C)c3C=C [drawing 1]	–	Strongly binds to silk	Binding properties [3]: Strongly binds to silk
O=S(=O)(O)c1ccc2c(c1)-c1nc-2nc2[nH]c(nc3nc(nc4[nH]c(n1)c1ccc(S(=O)(=O)O)cc41)-c1ccc(S(=O)(=O)O)cc1-3)c1ccc(S(=O)(=O)O)cc21 [phthalocyanine tetrasulfonic acid]	–	Strongly binds	–
O=S(=O)(O)c1ccc2c(c1)-c1nc-2nc2[nH]c(nc3nc(nc4[nH]c(n1)c1ccc(S(=O)(=O)O)cc41)-c1ccc(S(=O)(=O)O)cc1-3)c1ccc(S(=O)(=O)O)cc21.[Zn+2] [Zn phthalocyanine tetrasulfonic acid, zinc phthalocyanine tetrasulfonic acid]	can bind	–	–
COC(=O)CCC1=C(C)c2cc3[nH]c(cc4nc(cc5[nH]c(cc1n2)c(CCC(=O)OC)c5C)C(S(=O)(=O)O)=C4C)c(S(=O)(=O)O)c3C [drawing 4]	–	Weak binding	Binding properties [3]: Weak binding
C1=CC2C3=NC(=N\C4N/C(=N\C5=NC(=N\C6N/C(=N\3)c3ccccc36)/C3C=CC=CC53)c3ccccc34)/C2C=C1 (stereo not drawn) [drawing 5]	–	–	Binding properties [3]: Does not bind
COC(=O)CC[C@@H]1C2=NC(=C\C3=NC(=C(/C)C4=N[C@@](C)([C@@H]5[N-]/C(=C\2C)[C@](C)(CCC(=O)OC)[C@H]5CC(=O)OC)[C@@](C)(CC(=O)OC)[C@@H]4CCC(=O)OC)/[C@@](C)(CC(=O)OC)[C@@H]3CCC(=O)OC)/C1(C)C.[C-]#N.[C-]#N.[Co+3] [Dicyanocobyrinic acid heptamethyl ester, dicyanocobyrinic acid heptamethyl ester]	strongly blind to AmelF3	–	binding to silk protein (in words) [4]: did not bind
CCC1=C(C)c2cc3[nH]c(cc4[nH]c(cc5nc(cc1n2)C(C)=C5CC)c(C)c4CC)c(C)c3CC [drawing 2]	–	Does not bind	–
